Measurements taken from patent US8883758B2, “3,5-disubstituted and 3,5,7-trisubstituted-3H-oxazolo and 3H-thiazolo[4,5-d]pyrimidin-2-one compounds and prodrugs thereof” (Anadys Pharmaceuticals, Inc., priority 2004, dated 2014).

Each compound was assayed on fresh cynomolgus monkey hepatocytes (assay: Metabolism of Formula I prodrugs to 6-oxy metabolites in fresh cynomolgus monkey hepatocytes (LC/MS/MS)).
Type: in vitro ADME
Procedure: A study was undertaken to evaluate the metabolic stability of Formula I compounds 14, 15, 13, 114, 30, 103, 67, 65, and 76 in the presence of fresh cynomolgus monkey hepatocytes and monitor the formation of 6-oxy metabolites, i.e., Formula II compounds and other compounds of the invention. For comparison, the metabolic stability of famciclovir was also assessed.
Fresh cynomolgus monkey hepatocyte suspension (Lot #: Cy141) was purchased from CellzDirect (Tucson, Ariz.). Hepatocyte Incubation Medium (serum-free, sterile) was purchased from In Vitro Technologies (Baltimore, Md.).
The cynomolgus monkey hepatocyte suspension was prepared from fresh cynomolgus monkey hepatocytes in hepatocyte incubation medium at the concentration of 1.25 million cells/mL. The final incubation concentration (after test article addition) was 1.0 million cells/mL.
Existing 100 mM stock solutions in DMSO were used. The concentrations of the test articles were checked using UV-vis microplate reader. Correction coefficients were determined using the absorbance of a freshly prepared DMSO stock of 122.
Reaction suspensions were prepared in removable 96-well tubes, each containing 320 μL of fresh cynomolgus monkey hepatocyte suspension at the density of 1.25 million cells per mL and 40 μL of hepatocyte incubation medium. The above mixtures were pre-incubated open at 37° C., 95% humidity and 5% CO2 for 30 minutes. Reactions were initiated by the addition of 40 μL of test article at 10× concentration to each tube to achieve the final concentrations of 50 μM for the test article(s) and 1 million/mL cell density. The reaction suspension in each tube was mixed by inverting the tube several times. Aliquots of 50 μL from each reaction suspension were distributed into six additional removable 96-well tubes (one tube per time point taken at 15, 30, 45, 60, 90, and 120 minutes). The open tubes were incubated at 37° C. under 95% humidity and 5% CO2.
At predetermined time points, reactions were terminated by the addition of 150 μL of the stop solution to each tube containing 50 μL of the reaction suspension. The composition of the stop solution was the following: 15 mL of acetonitrile (containing 1 μg/mL nebularine as an internal standard and 0.1% formic acid) combined with 1 mL water.
The calibration curves were prepared in the following way. To 80 μL of cell suspension (at the cell density of 1.25 million/mL) 10 μL of hepatocyte incubation medium and 10 μL of the appropriate concentration of the compound in hepatocyte incubation medium were added Immediately following the compound addition, 300 μL of the stop solution (see above) was added.
All quenched samples were kept on wet ice until they were processed for analysis. Then they were mixed using a bench top Multi-Tube Vortexer (VWR Scientific Products) for approximately 30 seconds, and centrifuged at 4,000 rpm (3,220 rcf) for 10 minutes at 4° C. Clear supernatant (100 μl) was transferred into a clean deep well 96-well plate, evaporated to dryness under nitrogen, reconstituted in 100 μL of 90:10 water:acetonitrile, and analyzed for the parent form and metabolites of the test article using an appropriate LC/MS/MS method.
The compounds were quantified on an API3000 LC/MS/MS instrument in the ESI-Positive MRM (multiple reaction monitoring) mode.

SMILES	Metabolism to the corresponding 6-oxy metabolite
C[C@@]1(O)[C@@H](CO)O[C@@H](n2c(=O)sc3cnc(N)nc32)[C@@H]1O [Compound 30, 5-Amino-3-(3′-methyl-β-D-ribofuransyl)-3H-thiazolo[4,5-d]pyrimidin-2-one]	metabolized to yield the corresponding 6-oxy metabolites
CC(=O)OCC(CCn1cnc2cnc(N)nc21)COC(C)=O [Famciclovir, reference compound]	metabolized to yield the corresponding 6-oxy metabolites
CC(=O)OC[C@H]1O[C@@H](n2c(=O)sc3cnc(N)nc32)[C@H](OC(C)=O)[C@@]1(C)OC(C)=O [Compound 103, 5-Amino-3-(3′-methyl, 2′,3′,5′-tri-O-acetyl-β-D-xylofuranosyl)-3H-thiazolo[4,5-d]pyrimidin-2-one]	metabolized to yield the corresponding 6-oxy metabolites
CC(=O)OC[C@H]1O[C@@H](n2c(=O)sc3cnc(N)nc32)[C@H](OC(C)=O)[C@H]1OC(C)=O [Compound 114, 5-Amino-3-(2′,3′,5′-tri-O-acetyl-β-D-xylofuranosyl)-3H-thiazolo[4,5-d]pyrimidin-2-one]	metabolized to yield the corresponding 6-oxy metabolites
CC(=O)OC[C@@H]1C[C@@H](OC(C)=O)[C@H](n2c(=O)sc3cnc(N)nc32)O1 [Compound 14, 5-Amino-3-(2′,5′-di-O-acetyl-3′-deoxy-β-D-ribofuranosyl)-3H-thiazolo[4,5-d]pyrimidin-2-one]	metabolized to yield the corresponding 6-oxy metabolites
Nc1ncc2sc(=O)n(C3O[C@H](CO)[C@@H](CO)[C@H]3O)c2n1 (stereo partly drawn) [Compound 65, (3′S)-5-Amino-3-(3′-deoxy-3′-hydroxymethyl-β-D-ribofuranosyl)-3H-thiazolo[4,5-d]pyrimidin-2-one]	metabolized to yield the corresponding 6-oxy metabolites
Nc1ncc2sc(=O)n([C@@H]3O[C@H](CO)C[C@H]3O)c2n1 [Compound 13, 5-Amino-3-(3′-deoxy-β-D-ribofuranosyl)-3H-thiazolo[4,5-d]pyrimidin-2-one]	metabolized to yield the corresponding 6-oxy metabolites
C=C1[C@@H](O)[C@H](n2c(=O)sc3cnc(N)nc32)O[C@@H]1CO [Compound 76, 5-Amino-3-(3′-deoxy-3′-methylidene-β-D-ribofuranosyl)-3H-thiazolo[4,5-d]pyrimidin-2-one]	metabolized to yield the corresponding 6-oxy metabolites
CC(=O)O[C@@H]1C[C@@H](CO)O[C@H]1n1c(=O)sc2cnc(N)nc21 [Compound 15, 5-Amino-3-(2′-O-acetyl-3′-deoxy-β-D-ribofuranosyl)-3H-thiazolo[4,5-d]pyrimidin-2-one]	metabolized to yield the corresponding 6-oxy metabolites
